# Laboratory results: PubChem BioAssay AID1963442 (Molecular Pharmacology Branch, DTP, NCI, 2024)
# System: MPNST complex spheroid with HUVEC/MSC, growth, % test/control
# Assay: Anticancer human tumor MPNST cell line growth inhibition [Asc];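 note: compounds left on spheroids for seven days before reading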
# Details: for IC50: curve of first compound; for viability, T/C: stronger effect = lower value
# Procedure, shortened: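 Stromal components (HUVEC and hMSC) are co-assembled with the cancer cells into multicellular spheroids. Drugs are then added singly or paired, at concentrations falling by half-log increments from a clinically achievable maximum, capped at 10 microM without known Cmax.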
# [1] = second compound 0.1 µM, first compound 0.0316 µM
# [2] = second compound 0.1 µM, first compound 0.1 µM
# [3] = second compound 0.1 µM, first compound 0.316 µM
# [4] = second compound 0.1 µM, first compound 1 µM
# [5] = second compound 0.1 µM, first compound 3.16 µM
# [6] = second compound 0.1 µM, first compound 10 µM
# [7] = second compound 0.316 µM, first compound 0.0316 µM
# [8] = second compound 0.316 µM, first compound 0.1 µM
# [9] = second compound 0.316 µM, first compound 0.316 µM
# [10] = second compound 0.316 µM, first compound 1 µM
# [11] = second compound 0.316 µM, first compound 3.16 µM
# [12] = second compound 0.316 µM, first compound 10 µM
# [13] = second compound 1 µM, first compound 0.0316 µM
# [14] = second compound 1 µM, first compound 0.1 µM
# [15] = second compound 1 µM, first compound 0.316 µM
# [16] = second compound 1 µM, first compound 1 µM
# [17] = second compound 1 µM, first compound 3.16 µM
# [18] = second compound 1 µM, first compound 10 µM
# [19] = second compound 3.16 µM, first compound 0.0316 µM
# [20] = second compound 3.16 µM, first compound 0.1 µM
# [21] = second compound 3.16 µM, first compound 0.316 µM
# [22] = second compound 3.16 µM, first compound 1 µM
# [23] = second compound 3.16 µM, first compound 3.16 µM
# [24] = second compound 3.16 µM, first compound 10 µM
# [25] = second compound 10 µM, first compound 0.0316 µM
# [26] = second compound 10 µM, first compound 0.1 µM
# [27] = second compound 10 µM, first compound 0.316 µM
# [28] = second compound 10 µM, first compound 1 µM
# [29] = second compound 10 µM, first compound 3.16 µM
# [30] = second compound 10 µM, first compound 10 µM
smiles,measurement,setting,value
C=C(F)C(=O)N1CCN(c2nc(OCC3CCCN3C)nc3c2CCN(c2cccc4cccc(Cl)c24)C3)CC1CC#N (stereo not given) + Cc1c(S(C)(=O)=O)c(-c2cc(F)cc(N3CCN(c4ccc(NS(=O)(=O)c5ccc(NC(CCN6CCC(C(=O)OCCCP(=O)(O)O)CC6)CSc6ccccc6)c(S(=O)(=O)C(F)(F)F)c5)cc4)CC3)c2)c(-c2ccc(Cl)cc2)n1C(C)C,IC50,second compound 0.1 µM,> 10 µM
same,IC50,second compound 0.316 µM,3.72 µM
same,IC50,second compound 1 µM,2.88 µM
same,IC50,second compound 3.16 µM,1.98 µM
same,IC50,second compound 10 µM,3.3 µM
same,"viability, T/C",[1],65.5%
same,"viability, T/C",[2],66.2%
same,"viability, T/C",[3],69.8%
same,"viability, T/C",[4],81.1%
same,"viability, T/C",[5],74.7%
same,"viability, T/C",[6],51.3%
same,"viability, T/C",[7],67.2%
same,"viability, T/C",[8],61.1%
same,"viability, T/C",[9],69.6%
same,"viability, T/C",[10],58%
same,"viability, T/C",[11],52.4%
same,"viability, T/C",[12],36.2%
same,"viability, T/C",[13],73.5%
same,"viability, T/C",[14],75.4%
same,"viability, T/C",[15],67.6%
same,"viability, T/C",[16],53.9%
same,"viability, T/C",[17],53.5%
same,"viability, T/C",[18],41.1%
same,"viability, T/C",[19],78.2%
same,"viability, T/C",[20],70%
same,"viability, T/C",[21],64.5%
same,"viability, T/C",[22],57.3%
same,"viability, T/C",[23],46.2%
same,"viability, T/C",[24],32.7%
same,"viability, T/C",[25],53.5%
same,"viability, T/C",[26],65.8%
same,"viability, T/C",[27],71.2%
same,"viability, T/C",[28],64.4%
same,"viability, T/C",[29],50.8%
same,"viability, T/C",[30],30.3%
C=CC(=O)N1CCN(c2nc(=O)n(-c3c(C)ccnc3C(C)C)c3nc(-c4c(O)cccc4F)c(F)cc23)C(C)C1 (stereo not given) + Cc1c(S(C)(=O)=O)c(-c2cc(F)cc(N3CCN(c4ccc(NS(=O)(=O)c5ccc(NC(CCN6CCC(C(=O)OCCCP(=O)(O)O)CC6)CSc6ccccc6)c(S(=O)(=O)C(F)(F)F)c5)cc4)CC3)c2)c(-c2ccc(Cl)cc2)n1C(C)C,IC50,second compound 0.1 µM,> 10 µM
same,IC50,second compound 0.316 µM,> 10 µM
same,IC50,second compound 1 µM,> 10 µM
same,IC50,second compound 3.16 µM,> 10 µM
same,IC50,second compound 10 µM,> 10 µM
same,"viability, T/C",[1],71.9%
same,"viability, T/C",[2],74.7%
same,"viability, T/C",[3],84.2%
same,"viability, T/C",[4],96.2%
same,"viability, T/C",[5],93.4%
same,"viability, T/C",[6],105%
same,"viability, T/C",[7],79.4%
same,"viability, T/C",[8],93.8%
same,"viability, T/C",[9],76.7%
same,"viability, T/C",[10],88.9%
same,"viability, T/C",[11],85.7%
same,"viability, T/C",[12],108%
same,"viability, T/C",[13],90.8%
same,"viability, T/C",[14],85.1%
same,"viability, T/C",[15],89.8%
same,"viability, T/C",[16],89.9%
same,"viability, T/C",[17],101%
same,"viability, T/C",[18],118%
same,"viability, T/C",[19],66.5%
same,"viability, T/C",[20],88%
same,"viability, T/C",[21],84.6%
same,"viability, T/C",[22],99%
same,"viability, T/C",[23],100%
same,"viability, T/C",[24],99%
same,"viability, T/C",[25],83.5%
same,"viability, T/C",[26],91.2%
same,"viability, T/C",[27],83.8%
same,"viability, T/C",[28],97.1%
same,"viability, T/C",[29],115%
same,"viability, T/C",[30],115%
CCN1C(C(=O)NC23CCC(C(=O)O)(CC2)CC3)C(c2cccc(Cl)c2F)C2(C(=O)Nc3cc(Cl)ccc32)C12CCCCC2 (stereo not given) + Cc1c(S(C)(=O)=O)c(-c2cc(F)cc(N3CCN(c4ccc(NS(=O)(=O)c5ccc(NC(CCN6CCC(C(=O)OCCCP(=O)(O)O)CC6)CSc6ccccc6)c(S(=O)(=O)C(F)(F)F)c5)cc4)CC3)c2)c(-c2ccc(Cl)cc2)n1C(C)C,IC50,second compound 0.1 µM,> 3 µM
same,IC50,second compound 0.316 µM,> 3 µM
same,IC50,second compound 1 µM,> 3 µM
same,IC50,second compound 3.16 µM,> 3 µM
same,IC50,second compound 10 µM,> 3 µM
same,"viability, T/C","second compound 0.1 µM, first compound 0.00949 µM",66.3%
same,"viability, T/C","second compound 0.1 µM, first compound 0.03 µM",92.1%
same,"viability, T/C","second compound 0.1 µM, first compound 0.0949 µM",78.6%
same,"viability, T/C","second compound 0.1 µM, first compound 0.3 µM",69.6%
same,"viability, T/C","second compound 0.1 µM, first compound 0.949 µM",82.5%
same,"viability, T/C","second compound 0.1 µM, first compound 3 µM",58.6%
same,"viability, T/C","second compound 0.316 µM, first compound 0.00949 µM",84%
same,"viability, T/C","second compound 0.316 µM, first compound 0.03 µM",76.4%
same,"viability, T/C","second compound 0.316 µM, first compound 0.0949 µM",75.2%
same,"viability, T/C","second compound 0.316 µM, first compound 0.3 µM",66.9%
same,"viability, T/C","second compound 0.316 µM, first compound 0.949 µM",58.5%
same,"viability, T/C","second compound 0.316 µM, first compound 3 µM",60.3%
same,"viability, T/C","second compound 1 µM, first compound 0.00949 µM",83.1%
same,"viability, T/C","second compound 1 µM, first compound 0.03 µM",77.6%
same,"viability, T/C","second compound 1 µM, first compound 0.0949 µM",78.9%
same,"viability, T/C","second compound 1 µM, first compound 0.3 µM",66.6%
same,"viability, T/C","second compound 1 µM, first compound 0.949 µM",58.8%
same,"viability, T/C","second compound 1 µM, first compound 3 µM",63%
same,"viability, T/C","second compound 3.16 µM, first compound 0.00949 µM",77.9%
same,"viability, T/C","second compound 3.16 µM, first compound 0.03 µM",69.7%
same,"viability, T/C","second compound 3.16 µM, first compound 0.0949 µM",92.9%
same,"viability, T/C","second compound 3.16 µM, first compound 0.3 µM",59.1%
same,"viability, T/C","second compound 3.16 µM, first compound 0.949 µM",61.6%
same,"viability, T/C","second compound 3.16 µM, first compound 3 µM",56.7%
same,"viability, T/C","second compound 10 µM, first compound 0.00949 µM",85.9%
same,"viability, T/C","second compound 10 µM, first compound 0.03 µM",82.3%
same,"viability, T/C","second compound 10 µM, first compound 0.0949 µM",75.4%
same,"viability, T/C","second compound 10 µM, first compound 0.3 µM",68.8%
same,"viability, T/C","second compound 10 µM, first compound 0.949 µM",56.5%
same,"viability, T/C","second compound 10 µM, first compound 3 µM",58.3%
CNC(C)C(=O)NC1CN(S(=O)(=O)c2cccc(S(=O)(=O)N3CCC4CCC(C(=O)NC(c5ccccc5)c5ccccc5)N4C(=O)C(NC(=O)C(C)NC)C3)c2)CCC2CCC(C(=O)NC(c3ccccc3)c3ccccc3)N2C1=O (stereo not given) + Cc1c(S(C)(=O)=O)c(-c2cc(F)cc(N3CCN(c4ccc(NS(=O)(=O)c5ccc(NC(CCN6CCC(C(=O)OCCCP(=O)(O)O)CC6)CSc6ccccc6)c(S(=O)(=O)C(F)(F)F)c5)cc4)CC3)c2)c(-c2ccc(Cl)cc2)n1C(C)C,IC50,second compound 0.1 µM,> 1 µM
same,IC50,second compound 0.316 µM,> 1 µM
same,IC50,second compound 1 µM,> 1 µM
same,IC50,second compound 3.16 µM,> 1 µM
same,IC50,second compound 10 µM,> 1 µM
same,"viability, T/C","second compound 0.1 µM, first compound 0.00316 µM",121%
same,"viability, T/C","second compound 0.1 µM, first compound 0.01 µM",143%
same,"viability, T/C",[1],162%
same,"viability, T/C",[2],165%
same,"viability, T/C",[3],126%
same,"viability, T/C",[4],108%
same,"viability, T/C","second compound 0.316 µM, first compound 0.00316 µM",139%
same,"viability, T/C","second compound 0.316 µM, first compound 0.01 µM",150%
same,"viability, T/C",[7],127%
same,"viability, T/C",[8],149%
same,"viability, T/C",[9],121%
same,"viability, T/C",[10],135%
same,"viability, T/C","second compound 1 µM, first compound 0.00316 µM",145%
same,"viability, T/C","second compound 1 µM, first compound 0.01 µM",150%
same,"viability, T/C",[13],152%
same,"viability, T/C",[14],147%
same,"viability, T/C",[15],194%
same,"viability, T/C",[16],160%
same,"viability, T/C","second compound 3.16 µM, first compound 0.00316 µM",132%
same,"viability, T/C","second compound 3.16 µM, first compound 0.01 µM",185%
same,"viability, T/C",[19],171%
same,"viability, T/C",[20],141%
same,"viability, T/C",[21],151%
same,"viability, T/C",[22],159%
same,"viability, T/C","second compound 10 µM, first compound 0.00316 µM",143%
same,"viability, T/C","second compound 10 µM, first compound 0.01 µM",200%
same,"viability, T/C",[25],216%
same,"viability, T/C",[26],159%
same,"viability, T/C",[27],185%
same,"viability, T/C",[28],179%
